According to patent publication US20260374782A1, “NEW COMPOUNDS, PROCESSES FOR PREPARING THE SAME AND THEIR USE AS DRUGS” (B&A ONCOMEDICAL, priority 2022, published 2026):

Target: T1, NKCC1 (Homo sapiens, UniProt P55011)
T1 construct: endogenous in cells; host or cells: native HEK293 cells
T1 sequence (P55011 1-1212): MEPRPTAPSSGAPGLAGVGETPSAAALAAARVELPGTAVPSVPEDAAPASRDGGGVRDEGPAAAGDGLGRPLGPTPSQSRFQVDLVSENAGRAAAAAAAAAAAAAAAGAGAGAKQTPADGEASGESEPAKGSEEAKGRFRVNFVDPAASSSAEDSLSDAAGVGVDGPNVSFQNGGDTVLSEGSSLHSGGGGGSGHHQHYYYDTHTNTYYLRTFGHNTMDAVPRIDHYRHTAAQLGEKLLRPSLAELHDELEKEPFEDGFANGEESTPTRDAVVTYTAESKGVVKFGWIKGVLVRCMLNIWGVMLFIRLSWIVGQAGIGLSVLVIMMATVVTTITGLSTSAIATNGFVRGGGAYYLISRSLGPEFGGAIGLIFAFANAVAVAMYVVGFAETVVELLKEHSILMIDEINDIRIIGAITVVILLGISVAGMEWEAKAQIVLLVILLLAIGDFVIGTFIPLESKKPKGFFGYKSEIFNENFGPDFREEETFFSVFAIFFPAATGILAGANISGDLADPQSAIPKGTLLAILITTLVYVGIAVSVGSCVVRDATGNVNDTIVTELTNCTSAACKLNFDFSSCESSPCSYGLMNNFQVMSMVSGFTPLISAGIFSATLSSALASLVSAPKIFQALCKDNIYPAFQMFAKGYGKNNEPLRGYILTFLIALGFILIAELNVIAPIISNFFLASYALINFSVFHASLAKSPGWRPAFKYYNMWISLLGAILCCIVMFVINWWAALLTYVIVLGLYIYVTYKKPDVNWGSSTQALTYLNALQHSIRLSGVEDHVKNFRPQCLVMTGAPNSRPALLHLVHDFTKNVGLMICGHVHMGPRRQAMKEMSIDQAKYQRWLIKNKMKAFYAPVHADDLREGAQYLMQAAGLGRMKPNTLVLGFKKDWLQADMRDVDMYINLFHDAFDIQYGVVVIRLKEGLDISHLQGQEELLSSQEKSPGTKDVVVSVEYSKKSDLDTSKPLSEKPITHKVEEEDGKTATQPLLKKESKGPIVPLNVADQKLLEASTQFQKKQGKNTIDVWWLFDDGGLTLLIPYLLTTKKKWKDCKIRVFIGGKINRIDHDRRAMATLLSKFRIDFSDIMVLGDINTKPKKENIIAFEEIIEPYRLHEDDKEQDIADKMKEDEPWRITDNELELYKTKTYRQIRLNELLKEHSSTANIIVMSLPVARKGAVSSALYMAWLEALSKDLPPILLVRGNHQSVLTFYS
Test: NKCC1-mediated K+ influx (83Rb tracer uptake) in native HEK293 cells, hypertonic saline, 100 μM ouabain
Assay type: cell-based
Conditions: HEK293, no drug = 1000, 20 μM bumetanide = 0; for inhibition at 2 µM: read-out: NKCC1 mediated flux inhibition at 2 μM (%); for inhibition at 20 µM: read-out: NKCC1 mediated flux inhibition at 20 μM (%)
Excerpt: The compounds of the invention have been tested for evaluating their potency in inhibiting the NKCC1 channel. The test used is a cellular assay expressing the NKCC1 channel: HEK293 cells are human cells derived from embryonic kidney. The inhibitory activity of the compounds has been evaluated in measuring the modification of the potassium flux at 2 concentrations, as described hereafter in the biological protocol.
HEK293 cells are human cells derived from embryonic kidney. They express at their plasma membranes proteins that transport potassium (K^+). Among these proteins is the Na—K-2Cl cotransporter or NKCC1. This transporter contributes to 40-50% of K^+ influx into the cells. The remaining of K^+ transport is mediated by the Na^+/K^+-ATPase (also known as Na^+ pump or Na^+/K^+ pump), which also contributes some 40-50% of the influx basal flux of 5-10%, which is mainly due to K^+ channels (FIG. 1A). Thus, the HEK293 cell in culture is an ideal model to study the function of NKCC1 and test compounds that inhibits its transport.
The assay to measure NKCC1 function was optimized to obtain the next signal to noise ratio: • a. A slightly hypertonic saline was used to stimulate NKCC1 function. […] By consistent use of this simple manipulation, the NKCC1 signal was enhanced. • b. Ouabain, an inhibitor of the Na^+/K^+ pump, was used at 100 μM. […] A radioactive isotope was used to trace the inward movement of K^+ into the cell (influx). This allowed for highly precise measurements of K^+ influx. Because radioactive isotopes of K^+ had very short half-lives, radioactive isotopes of Rb^+ were used. Rubidium was a monovalent cation which was readily transporter at the K^+ binding site by many transporters and channels. Rb^+ was a congener of K^+, being transported undistinguishably from K^+. ^83Rb (half-life of 83 days) was used since ^86Rb (half-life of 19.6 days) is no longer commercially available. The ^83Rb isotope was used as a tracer, i.e. at a very low amounts to trace the movement of K^+.
K^+ influx measured in native HEK293 was in the range of 7000-9000 pmoles K^+ per mg protein per min. In the presence of 20 μM Ref 1, the flux was reduced to 600-900 pmoles K^+ per mg protein per min. Thus, there was a very solid dynamic range. In each experiment, the flux without Ref 1 was set at 1000 (equivalent to 100.0%) and the flux with 20 μM bumetanide was set at 0 (equivalent to 0%).
For the flux experiments, 35-mm culture dishes were coated with 0.1 mg/mL poly-L-lysine and placed in large 20×20 [square] dishes. For convenience, the poly-L-lysine was placed in the dishes the day before the experiment. Before plating the cells, the poly-L-lysine was aspirated, and each dish washed twice with 1 mL sterile water. Cells from 3 confluent 10-cm dishes were detached with trypsin and resuspended into 49 mL complete medium. Cells (2 mL/35-mm dish) were plated in 24 dishes and allowed to attach for at least 2 hours prior to the flux. This setup allowed the measurement of 8 conditions in triplicates. For the flux, culture medium was aspirated and replaced with 1 mL saline for a preincubation period of 15 min. The saline was aspirated and replaced with 1 mL identical saline containing 0.25 μCi/mL 83Rb for 15 min. Following the uptake period, the radioactive solution was aspirated, and the cells washed 3 times with ice-cold saline. Cells were then lyzed with 500 μl 0.25N NaOH for 1 hour, neutralized with 250 μL glacial acetic acid and 300 μL and 30 μL aliquots were used for μ-scintillation counting and protein assays, respectively. Two 5 μL of each flux solution was used to determine cpm and relate those cpm to nmoles K^+. Potassium influx was expressed in nmoles K^+ per mg protein per min. Note that within an experiment, groups of 3 dishes were separated 2 min apart for easy handling. Also note that since all dishes were plated with a homogeneous cell suspension, and all dishes were identical, the protein content was measured from a subset of dishes. […]

| Structure (SMILES) | inhibition at 2 µM | inhibition at 20 µM |
| --- | --- | --- |
| CCCCNc1cc(C(=O)OC)cc(S(=N)(=O)NCC2CCN(C(C)=O)CC2)c1Oc1ccccc1 (centres unmarked) [Compound 49, methyl 3-[[(1-acetyl-4-piperidyl)methylamino]sulfonimidoyl]-5-(butylamino)-4-phenoxy-benzoate] | 30 to 50% | 10 to 30% |
| CCCCNc1cc(C(=O)OC)cc(S(=N)(=O)NCC2CCN(C)CC2)c1Oc1ccccc1 (centres unmarked) [Compound 50, methyl 3-(butylamino)-5-[[(1-methyl-4-piperidyl)methylamino]sulfonimidoyl]-4-phenoxy-benzoate] | 30 to 50% | 30 to 50% |
| CCCCNc1cc(C(=O)O)cc(S(=N)(=O)N(C)C)c1Oc1ccccc1 (centres unmarked) [Compound 52, 3-(butylamino)-5-(dimethylaminosulfonimidoyl)-4-phenoxy-benzoic acid] | 30 to 50% | 50 to 75% |
| CCCCNc1cc(C(=O)O)cc(S(=N)(=O)N2CCCC2)c1Oc1ccccc1 (centres unmarked) [Compound 53, 3-(butylamino)-4-phenoxy-5-(pyrrolidin-1-ylsulfonimidoyl)benzoic acid] | 30 to 50% | ≥ 75% |
| CCCCNc1cc(C(=O)O)cc(S(=N)(=O)N2CCCCC2)c1Oc1ccccc1 (centres unmarked) [Compound 54, 3-(butylamino)-4-phenoxy-5-(1-piperidylsulfonimidoyl)benzoic acid] | 30 to 50% | ≥ 75% |
| CCCCNc1cc(C(=O)O)cc(S(=N)(=O)N(C)CC)c1Oc1ccccc1 (centres unmarked) [Compound 55, 3-(butylamino)-5-[[ethyl(methyl)amino]sulfonimidoyl]-4-phenoxy-benzoic acid] |  | 50 to 75% |
| CCCCNc1cc(C(=O)O)cc(S(=N)(=O)N2CCOCC2)c1Oc1ccccc1 (centres unmarked) [Compound 56, 3-(butylamino)-5-(morpholinosulfonimidoyl)-4-phenoxy-benzoic acid] |  | 30 to 50% |
| CCCCNc1cc(C(=O)O)cc(S(=N)(=O)NCc2ccccc2)c1Oc1ccccc1 (centres unmarked) [Compound 58, 3-[(benzylamino)sulfonimidoyl]-5-(butylamino)-4-phenoxy-benzoic acid] | 30 to 50% | ≥ 75% |
| CCCCNc1cc(C(=O)O)cc(S(=N)(=O)NCCOC)c1Oc1ccccc1 (centres unmarked) [Compound 59, 3-(butylamino)-5-[(2-methoxyethylamino)sulfonimidoyl]-4-phenoxy-benzoic acid] |  | 50 to 75% |
| CCCCNc1cc(C(=O)O)cc(S(=N)(=O)NC2CC2)c1Oc1ccccc1 (centres unmarked) [Compound 60, 3-(butylamino)-5-[(cyclopropylamino)sulfonimidoyl]-4-phenoxy-benzoic acid] | 10 to 30% | 50 to 75% |
| CCCCNc1cc(C(=O)O)cc(S(=N)(=O)N2CCCCCC2)c1Oc1ccccc1 (centres unmarked) [Compound 61, 3-(azepan-1-ylsulfonimidoyl)-5-(butylamino)-4-phenoxy-benzoic acid] | 30 to 50% | ≥ 75% |
| CCCCNc1cc(C(=O)O)cc(S(=N)(=O)NCC2CCCCC2)c1Oc1ccccc1 (centres unmarked) [Compound 62, 3-(butylamino)-5-[(cyclohexylmethylamino)sulfonimidoyl]-4-phenoxy-benzoic acid] | 10 to 30% | ≥ 75% |
| CCCCNc1cc(C(=O)O)cc(S(=N)(=O)NCC2CCOCC2)c1Oc1ccccc1 (centres unmarked) [Compound 63, 3-(butylamino)-4-phenoxy-5-[(tetrahydropyran-4-ylmethylamino)sulfonimidoyl]benzoic acid] |  | 30 to 50% |
| CCCCNc1cc(C(=O)O)cc(S(=N)(=O)Nc2cccnc2)c1Oc1ccccc1 (centres unmarked) [Compound 64, 3-(butylamino)-4-phenoxy-5-[(3-pyridylamino)sulfonimidoyl]benzoic acid] | 50 to 75% | ≥ 75% |
| CCCCNc1cc(C(=O)O)cc(S(=N)(=O)Nc2cccc(OC)c2)c1Oc1ccccc1 (centres unmarked) [Compound 65, 3-(butylamino)-5-[(3-methoxyanilino)sulfonimidoyl]-4-phenoxy-benzoic acid] | 50 to 75% | ≥ 75% |
